Results published in PMC7615656 (European journal of pharmacology, 2010).

Columns and labels:
[1] = molecular target: recombinant rat α3β3γ2F77I receptors (Rattus norvegicus, UniProt P18508+P20236, F115I); experiment: Two-electrode voltage clamp of GABA-induced chloride currents in Xenopus oocytes; assay type: cell-based; conditions: α3β3γ2F77I, ns = not significant
[2] = molecular target: recombinant rat α1β3γ2 receptors (Rattus norvegicus, UniProt P18508+P62813); experiment: as above; assay type: cell-based; conditions: for efficacy (% GABA EC3): α1β3γ2, ns = not significant
[3] = molecular target: recombinant rat α2β3γ2F77I receptors (Rattus norvegicus, UniProt P18508+P23576, F115I); experiment: as above; assay type: cell-based; conditions: α2β3γ2F77I, ns = not significant
[4] = molecular target: recombinant rat α6β3γ2F77I receptors (Rattus norvegicus, UniProt P18508+P30191, F115I); experiment: as above; assay type: cell-based; conditions: ns = not significant
[5] = molecular target: recombinant rat α2β3γ2 receptors (Rattus norvegicus, UniProt P18508+P23576); experiment: as above; assay type: cell-based; conditions: for efficacy (% GABA EC3): α2β3γ2, ns = not significant
[6] = molecular target: recombinant rat α4β3γ2F77I receptors (Rattus norvegicus, UniProt P18508+P28471, F115I); experiment: as above; assay type: cell-based; conditions: ns = not significant
[7] = molecular target: recombinant rat α4β3γ2 receptors (Rattus norvegicus, UniProt P18508+P28471); experiment: as above; assay type: cell-based; conditions: for efficacy (% GABA EC3): α4β3γ2, ns = not significant
[8] = molecular target: recombinant rat α5β3γ2 receptors (Rattus norvegicus, UniProt P18508+P19969); experiment: as above; assay type: cell-based; conditions: for efficacy (% GABA EC3): α5β3γ2, ns = not significant
[9] = test system: GABAA receptors containing the γ2F77I mutation; experiment: Modulation of GABA EC3 in receptors containing the γ2F77I mutation; assay type: cell-based, rat; conditions: up to 100 nM
[10] = molecular target: recombinant rat α5β3γ2F77I receptors (Rattus norvegicus, UniProt P18508+P19969, F115I); experiment: Two-electrode voltage clamp of GABA-induced chloride currents in Xenopus oocytes; assay type: cell-based; conditions: for efficacy (% GABA EC3): α5β3γ2F77I, ns = not significant
[11] = molecular target: recombinant rat α6β3γ2 receptors (Rattus norvegicus, UniProt P18508+P30191); experiment: as above; assay type: cell-based; conditions: for efficacy (% GABA EC3): α6β3γ2, ns = not significant
[12] = molecular target: recombinant rat α3β3γ2 receptors (Rattus norvegicus, UniProt P18508+P20236); experiment: as above; assay type: cell-based; conditions: for efficacy (% GABA EC3): α3β3γ2, ns = not significant
[13] = molecular target: recombinant rat α1β3γ2F77I receptors (Rattus norvegicus, UniProt P18508+P62813, F115I); experiment: as above; assay type: cell-based; conditions: α1β3γ2F77I, ns = not significant

Chain of recombinant rat α5β3γ2 receptors (P19969 32-464 limits assumed): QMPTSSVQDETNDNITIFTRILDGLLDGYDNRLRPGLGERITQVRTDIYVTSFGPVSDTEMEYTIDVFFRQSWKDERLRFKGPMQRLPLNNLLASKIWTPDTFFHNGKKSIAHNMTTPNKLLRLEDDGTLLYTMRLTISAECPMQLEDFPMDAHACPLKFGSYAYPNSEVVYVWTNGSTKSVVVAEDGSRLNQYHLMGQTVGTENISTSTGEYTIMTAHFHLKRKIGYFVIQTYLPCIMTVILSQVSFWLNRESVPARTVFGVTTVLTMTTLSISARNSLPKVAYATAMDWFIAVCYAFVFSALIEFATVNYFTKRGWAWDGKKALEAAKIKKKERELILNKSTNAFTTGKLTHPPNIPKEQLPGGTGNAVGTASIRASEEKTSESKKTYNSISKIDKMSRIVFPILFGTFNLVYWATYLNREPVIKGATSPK
Chain of recombinant rat α5β3γ2 receptors (P63079 26-473 partner): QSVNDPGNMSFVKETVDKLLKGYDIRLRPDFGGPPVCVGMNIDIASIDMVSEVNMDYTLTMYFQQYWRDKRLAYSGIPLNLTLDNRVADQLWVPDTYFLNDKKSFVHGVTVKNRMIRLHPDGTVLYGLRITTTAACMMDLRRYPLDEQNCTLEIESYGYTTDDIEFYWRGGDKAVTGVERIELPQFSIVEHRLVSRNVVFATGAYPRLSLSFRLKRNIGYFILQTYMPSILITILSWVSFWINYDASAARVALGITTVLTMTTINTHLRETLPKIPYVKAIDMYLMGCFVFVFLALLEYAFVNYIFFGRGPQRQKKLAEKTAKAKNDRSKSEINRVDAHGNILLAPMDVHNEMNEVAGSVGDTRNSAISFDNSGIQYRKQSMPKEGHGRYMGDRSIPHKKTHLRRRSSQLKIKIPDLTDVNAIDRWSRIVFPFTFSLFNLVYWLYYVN
Chain of recombinant rat α5β3γ2 receptors (P18508 39-466): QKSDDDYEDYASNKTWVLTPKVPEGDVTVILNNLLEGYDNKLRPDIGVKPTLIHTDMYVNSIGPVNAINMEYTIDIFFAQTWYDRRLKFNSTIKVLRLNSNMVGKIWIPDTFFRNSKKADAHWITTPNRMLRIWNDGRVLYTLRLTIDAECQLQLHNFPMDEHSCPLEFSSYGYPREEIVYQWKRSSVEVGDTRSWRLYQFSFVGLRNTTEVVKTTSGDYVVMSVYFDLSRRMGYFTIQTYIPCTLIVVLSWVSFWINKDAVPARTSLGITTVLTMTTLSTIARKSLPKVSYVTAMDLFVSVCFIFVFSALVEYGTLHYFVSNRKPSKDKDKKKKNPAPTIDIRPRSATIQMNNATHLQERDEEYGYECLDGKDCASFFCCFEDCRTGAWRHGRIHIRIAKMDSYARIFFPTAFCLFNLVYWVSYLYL
Chain of recombinant rat α5β3γ2F77I receptors (P19969 32-464 limits assumed): as the sequence (P19969 32-464 limits assumed) above
Chain of recombinant rat α5β3γ2F77I receptors (P63079 26-473 partner): as the sequence (P63079 26-473 partner) above
Chain of recombinant rat α5β3γ2F77I receptors (P18508 39-466 F115I): as the sequence (P18508 39-466) above, with F77I counted along it
Chain of recombinant rat α3β3γ2F77I receptors (P20236 29-493): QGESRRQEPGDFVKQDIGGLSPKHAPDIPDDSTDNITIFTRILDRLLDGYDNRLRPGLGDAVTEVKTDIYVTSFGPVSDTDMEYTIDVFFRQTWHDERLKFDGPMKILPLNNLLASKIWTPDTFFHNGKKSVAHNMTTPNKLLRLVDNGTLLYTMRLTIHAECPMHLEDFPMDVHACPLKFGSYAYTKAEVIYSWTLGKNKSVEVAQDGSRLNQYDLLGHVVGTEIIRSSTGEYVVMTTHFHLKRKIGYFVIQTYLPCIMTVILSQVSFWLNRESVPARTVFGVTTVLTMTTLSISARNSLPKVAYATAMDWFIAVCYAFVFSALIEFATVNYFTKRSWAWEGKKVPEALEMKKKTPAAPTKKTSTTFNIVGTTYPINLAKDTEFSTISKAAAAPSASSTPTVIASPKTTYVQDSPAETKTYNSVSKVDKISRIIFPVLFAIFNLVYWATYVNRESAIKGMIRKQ
Chain of recombinant rat α3β3γ2F77I receptors (P63079 26-473 partner): as the sequence (P63079 26-473 partner) above
Chain of recombinant rat α3β3γ2F77I receptors (P18508 39-466 F115I): as the sequence (P18508 39-466) above, with F77I counted along it

CC(C)(C)OC(=O)c1ncn2c1[C@@H]1CCCN1C(=O)c1c(Br)cccc1-2 [Bretazenil, t-butyl(s)-8-bromo-11,12,13,13a-tetrahydro-9-oxo-9H-imidazo[1,5-a] pyrrolo[2,1-c][1,4]benzodiazepine-1-carboxylate]
efficacy (% GABA EC3) ([1]; 10 nM): ns
efficacy (% GABA EC3) ([1]; 100 nM): 117 ± 3 % GABA EC3
efficacy (% GABA EC3) ([1]; 1 μM): 143 ± 7 % GABA EC3
efficacy (% GABA EC3) ([1]; 10 μM): 238 ± 15 % GABA EC3
EC50 [2]: 4 ± 1 nM
efficacy (% GABA EC3) ([2]; 10 nM): 126 ± 5 % GABA EC3
efficacy (% GABA EC3) ([2]; 100 nM): 134 ± 7 % GABA EC3
efficacy (% GABA EC3) ([2]; 1 μM): 136 ± 9 % GABA EC3
efficacy (% GABA EC3) ([2]; 10 μM): 138 ± 10 % GABA EC3
efficacy (% GABA EC3) ([3]; 10 nM): ns
efficacy (% GABA EC3) ([3]; 1 μM): 125 ± 3 % GABA EC3
efficacy (% GABA EC3) ([3]; 10 μM): 179 ± 8 % GABA EC3
efficacy (% GABA EC3) ([4]; 10 nM): ns
efficacy (% GABA EC3) ([4]; 100 nM): ns
efficacy (% GABA EC3) ([4]; 1 μM): ns
efficacy (% GABA EC3) ([4]; 10 μM): ns
EC50 [5]: 7 ± 1 nM
efficacy (% GABA EC3) ([5]; 10 nM): 119 ± 4 % GABA EC3
efficacy (% GABA EC3) ([5]; 100 nM): 128 ± 5 % GABA EC3
efficacy (% GABA EC3) ([5]; 1 μM): 130 ± 7 % GABA EC3
efficacy (% GABA EC3) ([5]; 10 μM): 129 ± 10 % GABA EC3
efficacy (% GABA EC3) ([6]; 10 nM): ns
efficacy (% GABA EC3) ([6]; 100 nM): ns
efficacy (% GABA EC3) ([6]; 1 μM): ns
efficacy (% GABA EC3) ([6]; 10 μM): ns
EC50 [7]: > 354 nM
efficacy (% GABA EC3) ([7]; 10 nM): ns
efficacy (% GABA EC3) ([7]; 100 nM): 156 ± 11 % GABA EC3
efficacy (% GABA EC3) ([7]; 1 μM): 332 ± 23 % GABA EC3
efficacy (% GABA EC3) ([7]; 10 μM): 395 ± 8 % GABA EC3
EC50 [8]: 9 ± 2 nM
efficacy (% GABA EC3) ([8]; 10 nM): 168 ± 13 % GABA EC3
efficacy (% GABA EC3) ([8]; 100 nM): 205 ± 17 % GABA EC3
efficacy (% GABA EC3) ([8]; 1 μM): 216 ± 22 % GABA EC3
efficacy (% GABA EC3) ([8]; 10 μM): 228 ± 23 % GABA EC3
activity in the mutated receptors [9]: inactive
EC50 [10]: > 748 nM
efficacy (% GABA EC3) ([10]; 10 nM): ns
efficacy (% GABA EC3) ([10]; 100 nM): 124 ± 3 % GABA EC3
efficacy (% GABA EC3) ([10]; 1 μM): 193 ± 8 % GABA EC3
efficacy (% GABA EC3) ([10]; 10 μM): 249 ± 11 % GABA EC3
EC50 [11]: > 322 nM
efficacy (% GABA EC3) ([11]; 10 nM): ns
efficacy (% GABA EC3) ([11]; 100 nM): ns
efficacy (% GABA EC3) ([11]; 1 μM): 202 ± 12 % GABA EC3
efficacy (% GABA EC3) ([11]; 10 μM): 231 ± 13 % GABA EC3
EC50 [12]: 15 ± 2 nM
efficacy (% GABA EC3) ([12]; 10 nM): 154 ± 6 % GABA EC3
efficacy (% GABA EC3) ([12]; 100 nM): 213 ± 11 % GABA EC3
efficacy (% GABA EC3) ([12]; 1 μM): 224 ± 14 % GABA EC3
efficacy (% GABA EC3) ([12]; 10 μM): 234 ± 17 % GABA EC3
efficacy (% GABA EC3) ([13]; 10 nM): ns
efficacy (% GABA EC3) ([13]; 100 nM): 120 ± 6 % GABA EC3
efficacy (% GABA EC3) ([13]; 1 μM): 149 ± 12 % GABA EC3
efficacy (% GABA EC3) ([13]; 10 μM): 164 ± 21 % GABA EC3
